Type in all cases: binding, mouse
Experiment [1] deals with monoclonal antibody 9F2-4-31 to imatinib. The experiment in a line: Indirect competitive microtiter plate immunoassay (ELISA), cross-reactivity with monoclonal antibody 9F2-4-31. To be noted: monoclonal antibody number 9F2-4-31; ratio of IC50 imatinib to IC50 analyte. The protocol: (§1) Mice from example 8a that were immunized with imatinib-KLH prepared in 6b were used to produce monoclonal antibodies. For monoclonal antibodies starting three days before the fusion, the mice were injected i.p. with 400 μg (3 days before fusion), 200 μg (2 days before fusion), and 200 μg (1 day before fusion) of imatinib-KLH in PSS/DMSO prepared in example 6b. Spleen cells were isolated from the selected mice and fused with 2×10^7 SP2/0 cells with 50% polyethylene glycol 1500 according to the method of Coligan, J. E. et al., eds., Current Protocols in Immunology, 2.5.1-2.5.8, (1992), Wiley & Sons, NY. The fused cells were plated on ten 96-well plates in DMEM/F12 supplemented with 20% FetalClone I, 2% L-glutamine (100 mM) and 2% 50× HAT. Two to three weeks later, the hybridoma supernatant was assayed for the presence of anti-imatinib antibodies by ELISA (as in example fob). […] Clones positive by ELISA were subcloned twice by limiting dilution according to the method disclosed in Coligan, J. E. et al., eds., Current Protocols in Immunology, 2.5.8-2.5.17, (1992), Wiley & Sons, NY. […] These monoclonal antibodies were tested for imatinib binding and cross-reactivity to a major imatinib metabolite, N-desmethyl imatinib, by indirect competitive microtiter plate assay as described in example 11. […]

Experiment [2] relates to polyclonal antibodies to imatinib (Example 8a). The experiment in a line: Indirect competitive microtiter plate immunoassay (ELISA), cross-reactivity with polyclonal antibodies to imatinib. To be noted: for Cross-reactivity of competitive immunoassay: ratio of IC50 imatinib to IC50 analyte. On the technique in general: An ELISA detects its analyte on a solid surface through an enzyme-linked reagent.

Experiment [3] relates to monoclonal antibody 9F2-4-29 to imatinib. The experiment in a line: Indirect competitive microtiter plate immunoassay (ELISA), cross-reactivity with monoclonal antibody 9F2-4-29. To be noted: monoclonal antibody number 9F2-4-29; ratio of IC50 imatinib to IC50 analyte. The protocol:
as §1

In a further experiment the test system is antibodies to imatinib. Nature of the experiment: Immunoassay reactivity of the antibodies produced in accordance with the invention (polyclonal and monoclonal). Particulars: summary of Tables I and II.
Experiment [4] concerns selected monoclonal antibodies to imatinib (Example 8b). The experiment in a line: Indirect competitive microtiter plate immunoassay (ELISA), cross-reactivity with selected monoclonal antibodies. To be noted: measured with selected monoclonal antibodies. The method, then:
Mice from example 8a that were immunized with imatinib-KLH prepared in 6b were used to produce monoclonal antibodies. For monoclonal antibodies starting three days before the fusion, the mice were injected i.p. with 400 μg (3 days before fusion), 200 μg (2 days before fusion), and 200 μg (1 day before fusion) of imatinib-KLH in PSS/DMSO prepared in example 6b. Spleen cells were isolated from the selected mice and fused with 2×10^7 SP2/0 cells with 50% polyethylene glycol 1500 according to the method of Coligan, J. E. et al., eds., Current Protocols in Immunology, 2.5.1-2.5.8, (1992), Wiley & Sons, NY. The fused cells were plated on ten 96-well plates in DMEM/F12 supplemented with 20% FetalClone I, 2% L-glutamine (100 mM) and 2% 50× HAT. Two to three weeks later, the hybridoma supernatant was assayed for the presence of anti-imatinib antibodies by ELISA (as in example fob). Cells from the wells that gave positive ELISA results (example lob) were expanded to 24 well plates. Clones positive by ELISA were subcloned twice by limiting dilution according to the method disclosed in Coligan, J. E. et al., eds., Current Protocols in Immunology, 2.5.8-2.5.17, (1992), Wiley & Sons, NY. Hybridoma culture supernatants containing monoclonal antibody from selected subclones were confirmed for imatinib binding by a competitive ELISA (example 11). […]

[5] abbreviates: polyclonal Bleed # 1, immunogen of example 6b.
Setting [6] is: polyclonal Bleed # 2, immunogen of example 6b.
The mark [7] stands for this setting: polyclonal Bleed # 3, immunogen of example 6b.
Setting [8] is: polyclonal Bleed # 4, immunogen of example 6a.
[9] abbreviates: polyclonal Bleed # 5, immunogen of example 6a.

Each structure is given as a SMILES string.

Regarding `Cc1ccc(NC(=O)c2ccc(CN3CCN(C)CC3)cc2)cc1Nc1nccc(-c2cccnc2)n1` [Imatinib], the “Cross-reactivity of competitive immunoassay” value (from here on “Cross-reactivity”) in experiment [1], in experiment [2] (setting [5]), in experiment [2] (setting [6]), in experiment [2] (setting [7]), in experiment [2] (setting [8]) and in experiment [2] (setting [9]) was 100% in each case. Besides, the “Cross-reactivity” value in experiment [3] was 100%.
In the case of `Cc1ccc(NC(=O)c2ccc(CN3CCNCC3)cc2)cc1Nc1nccc(-c2cccnc2)n1` [N-desmethyl imatinib], the “reactivity with the antibodies” value in the experiment with antibodies to imatinib was “substantially non-reactive”. Besides, the “percent cross-reactivities relative to imatinib” value in experiment [4] is given as “less than 4%”; in experiment [2] (measured with this pool of (polyclonal) antibodies) it was “less than or equal to 7%”. The “Cross-reactivity” value in experiment [1] amounted to 3.2%; in experiment [2] (setting [5]), 1%; in experiment [2] (setting [6]) it was 5%; in experiment [2] (setting [7]), 2%; in experiment [2] (setting [8]) it was 7%; in experiment [2] (setting [9]) it was 1%. The “Cross-reactivity” value in experiment [3] is reported as 2.7%.

Source of the values: patent US8263749B2, “Imatinib immunoassay” (Saladax Biomedical Inc., priority 2009, dated 2012).
